{"source": "patent US12543733B2", "about": "(priority 2020, dated 2026)", "key": {"[1]": {"system": "Sitophilus oryzae", "assay": "Fumigation assay (fumigant toxicity) against adults of stored-product insects", "assay_type": "in vivo", "settings": "for LC50: Sitophilus oryzae", "experimental": "(§1) Culturing of Insects: The stored product insect rice weevil (S. oryzae L.) was reared on whole wheat and the rust-red flour beetle (T. castaneum Herbst.) was reared on wheat flour with 5% yeast. Rice weevil and flour beetle were maintained at 23.6±2.5° C., 70% relative humidity and a photoperiod of 12:12 (Light:Dark). Corcyra cephalonica were reared on medium consisting of finely ground rice and maize flour in the ratio 1:1 (w/w) under laboratory conditions (27±1° C., 75±5% R.H. with a 12:12 h light:dark cycle."}, "[2]": {"system": "Tribolium castaneum", "assay": "Fumigation assay (fumigant toxicity) against adults of stored-product insects", "assay_type": "in vivo", "settings": "for LC50: Tribolium castaneum", "experimental": "as §1"}, "[3]": {"system": "housefly", "settings": "cited from earlier work"}, "[4]": {"system": "Corcyra cephalonica", "assay": "Fumigation assay (fumigant toxicity) against adults of stored-product insects", "assay_type": "in vivo", "settings": "C. cephalonica adults, mortality after 24 hours of exposure", "experimental": "as §1"}, "[5]": {"system": "C. arietinum (Chick pea) seeds", "assay": "Seed germination test", "assay_type": "in vivo", "settings": "for % germination (Mean ± SE): Chick pea", "experimental": "(§2) In order to assess the effect of isosecotanapartholide on plant growth and seed germination, particularly 50 seeds of Chickpea and Green gram sample were treated with isosecotanapartholide at 50 and 100 ppm and germination tests were done at […] and 72 hours of exposure treatments. From each sample, twenty grains seeds were randomly selected from the treatment and soaked for about 30 minutes in distilled water, and kept on filter paper (paper towel) in a petri dish, moistened everyday with distilled water, and allowed to germinate at room temperature (25±2° C.). After 48 and 72 hours, germinated seeds were counted and percentage germination was determined as in Radwan et al. 2019 (Annals of Agricultural Sciences, 64(2), 183-187). Three replications of each were made for both treatment and control.\n(§3) From each sample, twenty grains seeds were randomly selected from the treatment and soaked for about 30 minutes in distilled water, and kept on filter paper (paper towel) in a petri dish, moistened everyday with distilled water, and allowed to germinate at room temperature (25±2° C.). After 48 and 72 hours, germinated seeds were counted and percentage germination was determined as in Radwan et al. 2019 (Annals of Agricultural Sciences, 64(2), 183-187). Three replications of each were made for both treatment and control."}, "[6]": {"system": "V. radiata (Green gram) seeds", "assay": "Seed germination test", "assay_type": "in vivo", "settings": "for % germination (Mean ± SE): Green gram", "experimental": "as §2, §3"}, "[7]": {"system": "C. arietinum plants", "assay": "Plant growth observation after seed treatment", "assay_type": "in vivo"}, "[8]": {"system": "V. radiata plants", "assay": "Plant growth observation after seed treatment", "assay_type": "in vivo"}, "[9]": {"system": "stored grain insect pests", "assay": "Fumigation assay, range over the tested species", "experimental": "Measuring insecticidal activity of Isosecotanapartholide and Lemon grass oil (Cymbopogon flexuosus) by Fumigation Assay: The insecticidal activity of Isosecotanapartholide and lemon grass oil was assessed by fumigation assay against adults of stored-product insects (Corcyra cephalonica, Sitophilus oryzae and Tribolium castaneum). For each treatment, 50 individuals were tested for S. oryzae and T. castaneum; particularly adults were released into 0.85 L desiccators that served as the fumigation chambers. In each desiccator, a Whatman No. 1 filter circle (diameter: 9 cm) was placed to serve as an evaporating surface for injecting active extract. […] Five replicates were used for each dosage and LC50 was determined from dose response data using probit analysis. Insect mortality for isosecotanapartholide was recorded after 24 hours of exposure. Insects were considered dead when no leg or antennal movements were observed. Morality rate was calculated using Abbott formula for natural mortality in untreated (Abbott, 1925, Journal of Economic Entomology, 18, 265-267).\nFor each time point, 20 adults stored grain pests were used and determined percentage mortality."}, "[10]": {"system": "adults of S. oryzae", "settings": "24 hours of exposure time; cited from earlier work"}, "[11]": {"settings": "comparison with other fumigants, fumigation bioassay, read-out: LC50"}, "[12]": {"settings": "comparison with other fumigants, fumigation bioassay"}, "[13]": {"settings": "in comparison with control, observed for 2 weeks"}}, "note": "Where a name gives a salt, the structure may show the parent alone. Read-outs that look alike come from different tables or passages of the source."}
{"smiles": "CC12CCC(CC1)C(C)(C)O2", "note": "[1,8 Cineole]", "values": [{"measurement": "LC50", "setting": "[1]; [11]", "value": 31, "unit": "ng/mL"}, {"measurement": "LC50", "setting": "[2]; [11]", "value": 47, "unit": "ng/mL"}, {"measurement": "LD50", "setting": "[3]", "value": 118, "unit": "μg/fly"}]}
{"smiles": "Cc1ccc(C(C)C)cc1O", "note": "[Carvacol]", "values": [{"measurement": "LC50", "setting": "[1]; [12]", "value": 14.2, "unit": "ng/mL"}, {"measurement": "LC50", "setting": "[2]; [12]", "value": 17.0, "unit": "ng/mL"}]}
{"smiles": "CCOC=O", "note": "[Ethyl formate]", "values": [{"measurement": "LC50", "setting": "[1]; [11]", "value": 0.72, "unit": "ng/mL"}, {"measurement": "LC50", "setting": "[2]; [11]", "value": 1.12, "unit": "ng/mL"}]}
{"smiles": "C=C1C(=O)O[C@H](C2=C(C)[C@@H](O)CC2=O)[C@H]1CCC(C)=O", "note": "[Isosecotanapartholide, (4S,5S)-5-[(3S)-3-hydroxy-2methyl-5-oxocyclopent-1-en-1-yl]-3-methylidene-4-(3oxobutyl)dihydrofuran-2(3H)-one]", "values": [{"measurement": "LC90", "setting": "[4]", "value": 3.296, "unit": "ng/mL"}, {"measurement": "LC50", "setting": "[4]; Corcyra cephalonica", "value": 1.83, "unit": "ng/mL"}, {"measurement": "LC90", "setting": "[1]; S. oryzae adults, fumigant toxicity, mortality after 24 hours of exposure", "value": 3.274, "unit": "ng/mL"}, {"measurement": "LC50", "setting": "[1]; S. oryzae adults, fumigant toxicity, mortality after 24 hours of exposure, read-out: LC50", "value": 1.82, "unit": "ng/mL"}, {"measurement": "LC50", "setting": "[1]; [11]", "value": 1.82, "unit": "ng/mL"}, {"measurement": "LC90", "setting": "[2]; T. castaneum adults, fumigant toxicity, mortality after 24 hours of exposure", "value": 3.946, "unit": "ng/mL"}, {"measurement": "LC50", "setting": "[2]; T. castaneum adults, fumigant toxicity, mortality after 24 hours of exposure, read-out: LC50", "value": 2.19, "unit": "ng/mL"}, {"measurement": "LC50", "setting": "[2]; [11]", "value": 2.19, "unit": "ng/mL"}, {"measurement": "adverse effect on seed germination", "setting": "[5]; C. arietinum, in comparison with control", "value": "did not cause any adverse effect"}, {"measurement": "% germination (Mean ± SE)", "setting": "[5]; 50 PPM, 24 hours", "value": "96.00 ± 2.30", "unit": "%"}, {"measurement": "% germination (Mean ± SE)", "setting": "[5]; 50 PPM, 72 hours", "value": "97.33 ± 1.33", "unit": "%"}, {"measurement": "% germination (Mean ± SE)", "setting": "[5]; 100 PPM, 24 hours", "value": "94.67 ± 1.33", "unit": "%"}, {"measurement": "% germination (Mean ± SE)", "setting": "[5]; 100 PPM, 72 hours", "value": "96.00 ± 2.30", "unit": "%"}, {"measurement": "% germination (Mean ± SE)", "setting": "[6]; 50 PPM, 24 hours", "value": "93.33 ± 1.33", "unit": "%"}, {"measurement": "% germination (Mean ± SE)", "setting": "[6]; 50 PPM, 72 hours", "value": "94.67 ± 1.33", "unit": "%"}, {"measurement": "% germination (Mean ± SE)", "setting": "[6]; 100 PPM, 24 hours", "value": "96.00 ± 2.30", "unit": "%"}, {"measurement": "% germination (Mean ± SE)", "setting": "[6]; 100 PPM, 72 hours", "value": "96.00 ± 2.30", "unit": "%"}, {"measurement": "adverse effect on seed germination", "setting": "[6]; V. radiata, in comparison with control", "value": "did not cause any adverse effect"}, {"measurement": "response on plant growth", "setting": "[7]; 50 ppm, FIG. 4 (A)", "value": "comparable to control"}, {"measurement": "adverse effect on plant growth", "setting": "[7]; [13]", "value": "did not cause any adverse effect"}, {"measurement": "response on plant growth", "setting": "[8]; 50 ppm, FIG. 4 (B)", "value": "comparable to control"}, {"measurement": "adverse effect on plant growth", "setting": "[8]; [13]", "value": "did not cause any adverse effect"}, {"measurement": "LC50 values", "setting": "[9]", "value": "1.7 to 2.2", "unit": "ng/mL"}, {"measurement": "LC90 range", "setting": "[9]", "value": "3.2 to 4.0", "unit": "ng/mL"}]}
{"smiles": "C=CC(C)(O)CCC=C(C)C", "note": "(centres unmarked) [Linalool]", "values": [{"measurement": "LC50", "setting": "[1]; [11]", "value": 39.2, "unit": "ng/mL"}, {"measurement": "LC50", "setting": "[2]; [11]", "value": 49.8, "unit": "ng/mL"}]}
{"smiles": "CBr", "note": "[Methyl bromide]", "values": [{"measurement": "LC50", "setting": "[1]; [11]", "value": 3.6, "unit": "ng/mL"}, {"measurement": "LC50", "setting": "[2]; [11]", "value": 8.4, "unit": "ng/mL"}]}
{"smiles": "P", "note": "[Phosphine]", "values": [{"measurement": "LC50", "setting": "[1]; [12]", "value": 7.8, "unit": "ng/mL"}, {"measurement": "LC50", "setting": "[2]; [12]", "value": 9.8, "unit": "ng/mL"}]}
{"smiles": "C=CCN=C=S", "note": "[allylisothiocyanate]", "values": [{"measurement": "concentration found toxic", "setting": "[10]", "value": "less than 6.3 μl/l"}]}
